{
  "source": "ChEMBL document CHEMBL3244265",
  "about": "“Preparation and biological actions of some symmetrically N,N-disubstituted dopamines” (J Med Chem, 1978)",
  "key": {"[1]": {"system": "Rattus norvegicus", "test": "Induction of circling behaviour in sc dosed Sprague-Dawley rat in presence of 0.8 mg/kg haloperidol", "assay_type": "functional, organism-based", "set-up": "dose 0.8 mg/kg"}, "[2]": {"system": "Rattus norvegicus", "test": "Induction of hyperactivity in Sprague-Dawley rat at 40 mg/kg, sc pretreated for 30 mins with 5 mg/kg aceperone", "assay_type": "functional, organism-based"}, "[3]": {"system": "Rattus norvegicus", "test": "Induction of hyperactivity in Sprague-Dawley rat at 40 mg/kg, sc pretreated for 30 mins with 5 mg/kg propranolol", "assay_type": "functional, organism-based"}, "[4]": {"system": "Felis catus", "test": "Inhibition of 2 Hz electric current-induced cardioaccelerator nerve stimulation in iv dosed cat by cardiotachometer analysis", "assay_type": "functional"}, "[5]": {"system": "Felis catus", "test": "Inhibition of 10 Hz electric current-induced cardioaccelerator nerve stimulation in iv dosed cat by cardiotachometer analysis", "assay_type": "functional, organism-based"}, "[6]": {"system": "Columba livia", "test": "Antagonism of apomorphine-induced pecking in im dosed pigeon treated 15 mins prior to apomorphine challenge", "assay_type": "functional"}, "[7]": {"system": "Felis catus", "test": "Hypotensive activity in iv dosed cat in presence of haloperidol", "assay_type": "functional, organism-based"}, "[8]": {"system": "Rattus norvegicus", "test": "Induction of circling behaviour in Sprague-Dawley rat administered into nucleus accumbens in presence of haloperidol", "assay_type": "functional, organism-based"}, "[9]": {"system": "Rattus norvegicus", "test": "Induction of stereotyped behaviour in sc dosed Sprague-Dawley rat assessed as duration of action", "assay_type": "functional"}, "[10]": {"system": "Columba livia", "test": "Induction of pecking in im dosed pigeon", "assay_type": "functional, organism-based"}, "[11]": {"system": "Rattus norvegicus", "test": "Effect on motor function in Sprague-Dawley rat administered into caudate putamen", "assay_type": "functional, organism-based"}, "[12]": {"system": "Rattus norvegicus", "test": "Induction of stereotyped behaviour in sc dosed Sprague-Dawley rat pretreated for 30 mins with 0.4 mg/kg haloperidol", "assay_type": "functional, organism-based", "set-up": "dose 0.4 mg/kg"}, "[13]": {"system": "Felis catus", "test": "Inhibition of 2 Hz electric current-induced cardioaccelerator nerve stimulation in iv dosed cat by cardiotachometer analysis in presence of 0.2 mg/kg, iv haloperidol", "assay_type": "functional, organism-based", "set-up": "dose 0.2 mg/kg", "conditions": "at 0.2 mg/kg"}, "[14]": {"system": "Rattus norvegicus", "test": "Induction of hyperactivity in Sprague-Dawley rat administered into caudate putamen in presence of 0.2 to 0.8 mg/kg haloperidol", "assay_type": "functional, organism-based"}, "[15]": {"system": "Rattus norvegicus", "test": "Induction of circling behaviour in sc dosed Sprague-Dawley rat assessed as onset of action", "assay_type": "functional"}, "[16]": {"species_on_record": "Felis catus", "test": "Agonist activity at dopamine receptor in cat right atrium assessed as inhibition of cardiaccelerator nerve stimulation rate by cardiotachometer analysis", "assay_type": "tissue-based", "conditions": "Cardiac atrium"}, "[17]": {"system": "Rattus norvegicus", "test": "Induction of hyperactivity in Sprague-Dawley rat at 40 mg/kg, sc pretreated for 30 mins with 0.4 mg/kg haloperidol", "assay_type": "functional, organism-based"}, "[18]": {"system": "Rattus norvegicus", "test": "Induction of stereotyped behaviour in sc dosed Sprague-Dawley rat assessed as onset of action", "assay_type": "functional"}, "[19]": {"system": "Rattus norvegicus", "test": "Induction of hyperactivity in Sprague-Dawley rat at 40 mg/kg, sc pretreated for 18 hrs with 5 mg/kg reserpine and 6 hrs with 250 mg/kg alpha-methyl-p-tyrosine", "assay_type": "functional, organism-based"}, "[20]": {"system": "Rattus norvegicus", "test": "Induction of stereotyped behaviour in Sprague-Dawley rat administered into nucleus accumbens in presence of 0.2 to 0.8 mg/kg haloperidol", "assay_type": "functional, organism-based"}, "[21]": {"system": "Rattus norvegicus", "test": "Induction of hyperactivity in Sprague-Dawley rat administered into nucleus accumbens in presence of 0.2 to 0.8 mg/kg haloperidol", "assay_type": "functional, organism-based"}, "[22]": {"system": "Rattus norvegicus", "test": "Induction of circling behaviour in sc dosed Sprague-Dawley rat assessed as duration of action", "assay_type": "functional"}, "[23]": {"system": "Canis familiaris", "test": "Induction of emesis in sc dosed dog", "assay_type": "functional", "conditions": "Canis lupus familiaris"}, "[24]": {"system": "Rattus norvegicus", "test": "Induction of circling behaviour in Sprague-Dawley rat administered into caudate putamen in presence of haloperidol", "assay_type": "functional, organism-based"}, "[25]": {"system": "Rattus norvegicus", "test": "Induction of stereotyped behaviour in Sprague-Dawley rat administered into caudate putamen in presence of 0.2 to 0.8 mg/kg haloperidol", "assay_type": "functional, organism-based"}, "[26]": {"system": "Felis catus", "test": "Inhibition of 2 Hz electric current-induced cardioaccelerator nerve stimulation in iv dosed cat by cardiotachometer analysis in presence of 2 mg/kg, iv phentolamine", "assay_type": "functional, organism-based", "set-up": "dose 2 mg/kg", "conditions": "at 2 mg/kg"}, "[27]": {"system": "Rattus norvegicus", "test": "Induction of stereotyped behaviour in sc dosed Sprague-Dawley rat", "assay_type": "functional, organism-based"}, "[28]": {"system": "Felis catus", "test": "Hypotensive activity in iv dosed cat", "assay_type": "functional, organism-based"}, "[29]": {"system": "Rattus norvegicus", "test": "Induction of hyperactivity in Sprague-Dawley rat at 40 mg/kg, sc", "assay_type": "functional, organism-based", "set-up": "dose 40 mg/kg"}, "[30]": {"system": "Felis catus", "test": "Effect on heart rate in iv dosed cat", "assay_type": "functional, organism-based"}, "[31]": {"system": "Rattus norvegicus", "test": "Induction of circling behaviour in sc dosed Sprague-Dawley rat in presence of 5 mg/kg aceperone", "assay_type": "functional, organism-based", "set-up": "dose 5 mg/kg"}, "[32]": {"system": "Rattus norvegicus", "test": "Induction of circling behaviour in sc dosed Sprague-Dawley rat in presence of 5 mg/kg propranolol", "assay_type": "functional, organism-based", "set-up": "dose 5 mg/kg"}, "[33]": {"system": "Columba livia", "test": "Induction of pecking in pigeon at 1.62 umol/kg, im", "assay_type": "functional, organism-based"}, "[34]": {"system": "Rattus norvegicus", "test": "Induction of circling behaviour in sc dosed Sprague-Dawley rat assessed as reversal of spontaneous ipsilateral to contralateral circling response", "assay_type": "functional, organism-based"}},
  "note": "Activity calls are given as the source filed them. No cut-off for these calls is given here.",
  "data": [
    {"smiles": "CCCN(CCC)CCc1ccc(O)c(O)c1", "values": [
      {"measurement": "Activity", "setting": "[1]", "value": "inactive"},
      {"measurement": "Activity", "setting": "[2]", "value": "Active"},
      {"measurement": "Activity", "setting": "[3]", "value": "Active"},
      {"measurement": "ED50", "setting": "[4]", "value": 0.068, "unit": "µmol/kg"},
      {"measurement": "inhibition", "setting": "[5]", "value": "inactive"},
      {"measurement": "ED50", "setting": "[6]", "value": 56, "unit": "µmol/kg"},
      {"measurement": "Activity", "setting": "[7]", "value": "inactive"},
      {"measurement": "Activity", "setting": "[8]", "value": "inactive"},
      {"measurement": "Time", "setting": "[9]", "value": 10, "unit": "min"},
      {"measurement": "Activity", "setting": "[10]", "value": "inactive"},
      {"measurement": "Activity", "setting": "[11]", "value": "inactive"},
      {"measurement": "Activity", "setting": "[12]", "value": "inactive"},
      {"measurement": "inhibition", "setting": "[13]", "value": "inactive"},
      {"measurement": "Activity", "setting": "[14]", "value": "inactive"},
      {"measurement": "Time", "setting": "[15]", "value": 3, "unit": "min"},
      {"measurement": "ED50", "setting": "[16]", "value": 420, "unit": "nM"},
      {"measurement": "Activity", "setting": "[17]", "value": "inactive"},
      {"measurement": "Time", "setting": "[18]", "value": "<5", "unit": "min"},
      {"measurement": "Activity", "setting": "[19]", "value": "Active"},
      {"measurement": "Activity", "setting": "[20]", "value": "inactive"},
      {"measurement": "Activity", "setting": "[21]", "value": "inactive"},
      {"measurement": "Time", "setting": "[22]", "value": 5, "unit": "min"},
      {"measurement": "ED50", "setting": "[23]", "value": 1, "unit": "mg/kg"},
      {"measurement": "Activity", "setting": "[24]", "value": "inactive"},
      {"measurement": "Activity", "setting": "[25]", "value": "inactive"},
      {"measurement": "inhibition", "setting": "[26]", "value": "Active"},
      {"measurement": "Activity", "setting": "[27]", "value": "Dose-dependent effect"},
      {"measurement": "Activity", "setting": "[28]", "value": "Active"},
      {"measurement": "Activity", "setting": "[29]", "value": "Active"},
      {"measurement": "Activity", "setting": "[30]", "value": "inactive"}
    ]},
    {"smiles": "CN1CCc2cccc3c2[C@H]1Cc1ccc(O)c(O)c1-3.CN1CCc2cccc3c2[C@H]1Cc1ccc(O)c(O)c1-3.Cl.Cl.O", "note": "[APOMORPHINE HYDROCHLORIDE]", "values": [
      {"measurement": "Activity", "setting": "[1]", "value": "inactive"},
      {"measurement": "ED50", "setting": "[4]", "value": 0.1, "unit": "µmol/kg"},
      {"measurement": "Time", "setting": "[9]", "value": 20, "unit": "min"},
      {"measurement": "inhibition", "setting": "[13]", "value": "inactive"},
      {"measurement": "Time", "setting": "[15]", "value": 3, "unit": "min"},
      {"measurement": "ED50", "setting": "[16]", "value": 43, "unit": "nM"},
      {"measurement": "Activity", "setting": "[31]", "value": "Active"},
      {"measurement": "Activity", "setting": "[32]", "value": "Active"},
      {"measurement": "Time", "setting": "[18]", "value": "<5", "unit": "min"},
      {"measurement": "Time", "setting": "[22]", "value": 40, "unit": "min"},
      {"measurement": "Activity", "setting": "[33]", "value": "Active"},
      {"measurement": "ED50", "setting": "[23]", "value": 0.13, "unit": "µmol/kg"},
      {"measurement": "Activity", "setting": "[34]", "value": "Active"},
      {"measurement": "Activity", "setting": "[27]", "value": "Dose-dependent effect"}
    ]}
  ]
}
